± gives the standard deviation of the averaged measurements.
Columns and labels:
Settings in all cases: 72 h
KCL-22 [1] = experiment: cell viability (% survival relative to DMSO control, bortezomib = 0%); higher = less cytotoxic
Method in brief: (§1)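 Fifteen myeloid leukaemia cell lines (10 AML, 5 CML) were seeded at a density titrated to the linear growth range. They went into 384-well plates with compounds pre-printed at 1, 10, 100, 1000 or 10000 nM in duplicate. After 72 h at 37 °C with 5% CO2, viability was read by CellTiter-Glo luminescence. Values are percent survival, with vehicle set to 100% and a 10 µM positive control to 0%, averaged over the duplicates.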

K-562 [2] = experiment: as above
Method in brief: as §1

LAMA-84 [3] = experiment: as above
Method in brief: as §1

MV4-11 [4] = experiment: as above
Method in brief: as §1

MOLM-13 [5] = experiment: as above
Method in brief: as §1

HL-60 [6] = experiment: as above
Method in brief: as §1

SHI-1 [7] = experiment: as above
Method in brief: as §1

KG-1 [8] = experiment: as above
Method in brief: as §1

ML-2 [9] = experiment: as above
Method in brief: as §1

HEL [10] = experiment: as above
Method in brief: as §1

BV-173 [11] = experiment: as above
Method in brief: as §1

KCL-22 [12] = test system: KCL-22
Method in brief: (§2)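 For the IC50, dose–response curves were fitted with a log-logistic model. The data came from fifteen myeloid leukaemia cell lines grown in RPMI 1640 at densities in the linear growth range and incubated in 384-well plates for 72 h at 37 °C under 5% CO2. Doses were five tenfold steps from 1 to 10,000 nM in duplicate, and luminescent ATP viability was normalised to vehicle and to a positive control at 10 µM before four-parameter fitting.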

NOMO-1 = test system: NOMO-1
Method in brief: as §2

K-562 [13] = test system: K-562
Method in brief: as §2

LAMA-84 [14] = test system: LAMA-84
Method in brief: as §2

KU-812 = test system: KU-812
Method in brief: as §2

THP-1 = test system: THP-1
Method in brief: as §2

MV4-11 [15] = test system: MV4-11
Method in brief: as §2

MOLM-13 [16] = test system: MOLM-13
Method in brief: as §2

Mono-Mac-6 = test system: Mono-Mac-6
Method in brief: as §2

HL-60 [17] = test system: HL-60
Method in brief: as §2

SHI-1 [18] = test system: SHI-1
Method in brief: as §2

KG-1 [19] = test system: KG-1
Method in brief: as §2

ML-2 [20] = test system: ML-2
Method in brief: as §2

HEL [21] = test system: HEL
Method in brief: as §2

BV-173 [22] = test system: BV-173
Method in brief: as §2

HL-60 [23] = experiment: cell viability (% survival relative to DMSO control); higher = less cytotoxic
Method in brief: (§3)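 Four-parameter log-logistic fits in drc and PharmacoGx supplied area under the curve where it is given. Underlying viability came from CellTiter-Glo, normalised to DMSO and proteasome-inhibitor wells, with the proteasome inhibitor at 10 μM. HL-60 cells in RPMI 1640 plus 10% FBS had been rescreened against the full library at five tenfold concentrations of 1–10,000 nM, in duplicate on 384-well plates, with DMSO or 100 nM of one of three metabolic inhibitors, for 72 h at 37 °C, 5% CO2.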

HL-60 [24] = experiment: area under dose-response curve (viability, 1 nM-10 uM) (fraction (0-1)); higher = more sensitive
Method in brief: as §3

For `c1ccc2c(c1)SCc1c-2[nH]c2ccccc12`, which cell viability (KCL-22 [1]; 1 nM) is on record?
The cell viability was 96.1%.

And the cell viability (KCL-22 [1]; 10 nM)?
The cell viability was 93.2%.

What about the cell viability (KCL-22 [1]; 100 nM) of the same compound?
Its cell viability is 100%.

What about the cell viability (KCL-22 [1]; 1000 nM) of the same compound?
Its cell viability is 80.9%.

And the cell viability (KCL-22 [1]; 10000 nM)?
The cell viability was 1.24%.

What about the cell viability (K-562 [2]; 1 nM) of the same compound?
Its cell viability is 100%.

What about the cell viability (K-562 [2]; 10 nM) of the same compound?
The cell viability was 100%.

And the cell viability (K-562 [2]; 100 nM)?
Its cell viability is 103%.

What about the cell viability (K-562 [2]; 1000 nM) of the same compound?
The cell viability was 108%.

What about the cell viability (K-562 [2]; 10000 nM) of the same compound?
Its cell viability is 12%.

And the cell viability (LAMA-84 [3]; 1 nM)?
Its cell viability is 106%.

And the cell viability (LAMA-84 [3]; 10 nM)?
Its cell viability is 103%.

And the cell viability (LAMA-84 [3]; 100 nM)?
The cell viability was 111%.

And the cell viability (LAMA-84 [3]; 1000 nM)?
The cell viability was 109%.

What about the cell viability (LAMA-84 [3]; 10000 nM) of the same compound?
Its cell viability is 16.6%.

What about the cell viability (MV4-11 [4]; 1 nM) of the same compound?
The cell viability was 101%.

And the cell viability (MV4-11 [4]; 10 nM)?
Its cell viability is 101%.

What about the cell viability (MV4-11 [4]; 100 nM) of the same compound?
Its cell viability is 111%.

And the cell viability (MV4-11 [4]; 1000 nM)?
Its cell viability is 52.8%.

And the cell viability (MV4-11 [4]; 10000 nM)?
The cell viability was -0.521%.

What about the cell viability (MOLM-13 [5]; 1 nM) of the same compound?
Its cell viability is 99.2%.

And the cell viability (MOLM-13 [5]; 10 nM)?
Its cell viability is 87%.

And the cell viability (MOLM-13 [5]; 100 nM)?
The cell viability was 100%.

And the cell viability (MOLM-13 [5]; 1000 nM)?
The cell viability was 78.6%.

What about the cell viability (MOLM-13 [5]; 10000 nM) of the same compound?
Its cell viability is 23.9%.

And the cell viability (HL-60 [6]; 1 nM)?
The cell viability was 100%.

What about the cell viability (HL-60 [6]; 10 nM) of the same compound?
The cell viability was 95.7%.

And the cell viability (HL-60 [6]; 100 nM)?
Its cell viability is 102%.

What about the cell viability (HL-60 [6]; 1000 nM) of the same compound?
The cell viability was 83%.

What about the cell viability (HL-60 [6]; 10000 nM) of the same compound?
The cell viability was 23.4%.

And the cell viability (SHI-1 [7]; 1 nM)?
Its cell viability is 101%.

What about the cell viability (SHI-1 [7]; 10 nM) of the same compound?
Its cell viability is 96%.

And the cell viability (SHI-1 [7]; 100 nM)?
Its cell viability is 89.1%.

And the cell viability (SHI-1 [7]; 1000 nM)?
The cell viability was 84.7%.

And the cell viability (SHI-1 [7]; 10000 nM)?
The cell viability was 3.75%.

And the cell viability (KG-1 [8]; 1 nM)?
The cell viability was 104%.

What about the cell viability (KG-1 [8]; 10 nM) of the same compound?
The cell viability was 102%.

What about the cell viability (KG-1 [8]; 100 nM) of the same compound?
The cell viability was 125%.

What about the cell viability (KG-1 [8]; 1000 nM) of the same compound?
Its cell viability is 34.7%.

And the cell viability (KG-1 [8]; 10000 nM)?
The cell viability was -0.763%.

And the cell viability (ML-2 [9]; 1 nM)?
Its cell viability is 106%.

What about the cell viability (ML-2 [9]; 10 nM) of the same compound?
Its cell viability is 110%.

What about the cell viability (ML-2 [9]; 100 nM) of the same compound?
The cell viability was 89.8%.

And the cell viability (ML-2 [9]; 1000 nM)?
Its cell viability is 69%.

What about the cell viability (ML-2 [9]; 10000 nM) of the same compound?
The cell viability was -1.13%.

And the cell viability (HEL [10]; 1 nM)?
The cell viability was 106%.

What about the cell viability (HEL [10]; 10 nM) of the same compound?
Its cell viability is 102%.

What about the cell viability (HEL [10]; 100 nM) of the same compound?
The cell viability was 94.6%.

And the cell viability (HEL [10]; 1000 nM)?
The cell viability was 94.9%.

And the cell viability (HEL [10]; 10000 nM)?
The cell viability was 7%.

What about the cell viability (BV-173 [11]; 1 nM) of the same compound?
The cell viability was 98.6%.

What about the cell viability (BV-173 [11]; 10 nM) of the same compound?
The cell viability was 113%.

And the cell viability (BV-173 [11]; 100 nM)?
The cell viability was 114%.

What about the cell viability (BV-173 [11]; 1000 nM) of the same compound?
The cell viability was 27.6%.

And the cell viability (BV-173 [11]; 10000 nM)?
The cell viability was -0.875%.

And the “IC50 (cell viability)” value (KCL-22 [12])?
The value was 2.18 µM.

What about the “IC50 (cell viability)” value (NOMO-1) of the same compound?
Its value is 3.12 µM.

And the “IC50 (cell viability)” value (K-562 [13])?
The value was 4.42 µM.

What about the “IC50 (cell viability)” value (LAMA-84 [14]) of the same compound?
Its value is 4.96 µM.

What about the “IC50 (cell viability)” value (KU-812) of the same compound?
Its value is 2.92 µM.

What about the “IC50 (cell viability)” value (THP-1) of the same compound?
Its value is 4.04 µM.

What about the “IC50 (cell viability)” value (MV4-11 [15]) of the same compound?
Its value is 1.06 µM.

What about the “IC50 (cell viability)” value (MOLM-13 [16]) of the same compound?
Its value is 1.97 µM.

What about the “IC50 (cell viability)” value (Mono-Mac-6) of the same compound?
Its value is 2.89 µM.

And the “IC50 (cell viability)” value (HL-60 [17])?
The value was 2 µM.

And the “IC50 (cell viability)” value (SHI-1 [18])?
The value was 2.6 µM.

And the “IC50 (cell viability)” value (KG-1 [19])?
Its value is 0.76 µM.

What about the “IC50 (cell viability)” value (ML-2 [20]) of the same compound?
Its value is 1.48 µM.

What about the “IC50 (cell viability)” value (HEL [21]) of the same compound?
Its value is 3.3 µM.

And the “IC50 (cell viability)” value (BV-173 [22])?
Its value is 0.646 µM.

What about the cell viability (HL-60 [23]; 0.001 µM, co-treatment: AZD3965 100 nM) of the same compound?
Its cell viability is 80.9 ± 24%.

What about the cell viability (HL-60 [23]; 0.001 µM, co-treatment: DMSO vehicle) of the same compound?
The cell viability was 102.4 ± 0.67%.

What about the cell viability (HL-60 [23]; 0.001 µM, co-treatment: GSK2194069 100 nM) of the same compound?
Its cell viability is 96.7 ± 2.4%.

What about the cell viability (HL-60 [23]; 0.001 µM, co-treatment: pictilisib 100 nM) of the same compound?
The cell viability was 90.3 ± 19%.

What about the cell viability (HL-60 [23]; 0.01 µM, co-treatment: AZD3965 100 nM) of the same compound?
The cell viability was 94.8 ± 9.9%.

And the cell viability (HL-60 [23]; 0.01 µM, co-treatment: DMSO vehicle)?
Its cell viability is 101.01 ± 0.034%.

What about the cell viability (HL-60 [23]; 0.01 µM, co-treatment: GSK2194069 100 nM) of the same compound?
The cell viability was 100.7 ± 0.49%.

And the cell viability (HL-60 [23]; 0.01 µM, co-treatment: pictilisib 100 nM)?
Its cell viability is 86.7 ± 13%.

And the cell viability (HL-60 [23]; 0.1 µM, co-treatment: AZD3965 100 nM)?
The cell viability was 107 ± 3.7%.

What about the cell viability (HL-60 [23]; 0.1 µM, co-treatment: DMSO vehicle) of the same compound?
The cell viability was 98.13 ± 0.25%.

What about the cell viability (HL-60 [23]; 0.1 µM, co-treatment: GSK2194069 100 nM) of the same compound?
The cell viability was 103 ± 1.6%.

What about the cell viability (HL-60 [23]; 0.1 µM, co-treatment: pictilisib 100 nM) of the same compound?
The cell viability was 104 ± 3.1%.

And the cell viability (HL-60 [23]; 1 µM, co-treatment: AZD3965 100 nM)?
The cell viability was 117 ± 11%.

And the cell viability (HL-60 [23]; 1 µM, co-treatment: DMSO vehicle)?
The cell viability was 101 ± 2.6%.

And the cell viability (HL-60 [23]; 1 µM, co-treatment: GSK2194069 100 nM)?
The cell viability was 96.4 ± 3.2%.

And the cell viability (HL-60 [23]; 1 µM, co-treatment: pictilisib 100 nM)?
Its cell viability is 105 ± 9%.

And the cell viability (HL-60 [23]; 10 µM, co-treatment: AZD3965 100 nM)?
Its cell viability is 94.6 ± 18%.

And the cell viability (HL-60 [23]; 10 µM, co-treatment: DMSO vehicle)?
The cell viability was 96.9 ± 1.2%.

And the cell viability (HL-60 [23]; 10 µM, co-treatment: GSK2194069 100 nM)?
The cell viability was 93.2 ± 5.7%.

What about the cell viability (HL-60 [23]; 10 µM, co-treatment: pictilisib 100 nM) of the same compound?
Its cell viability is 98.9 ± 2%.

And the “area under dose-response curve” value (HL-60 [24]; co-treatment: AZD3965 100 nM)?
Its value is less than 0.0301.

And the “area under dose-response curve” value (HL-60 [24]; co-treatment: DMSO vehicle)?
The value was less than 0.0301.

What about the “area under dose-response curve” value (HL-60 [24]; co-treatment: GSK2194069 100 nM) of the same compound?
The value was less than 0.0301.

What about the “area under dose-response curve” value (HL-60 [24]; co-treatment: pictilisib 100 nM) of the same compound?
Its value is less than 0.0301.

From the supplement of paper PMC8671470
